Assay results as given in PubChem BioAssay (NCI).
Where “and” joins values, the source holds several entries; their conditions need not be identical. Identical values can stand only once.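 Grown in 96-well plates, cells were treated for 48 hours with each compound at five concentrations. Insufficient inhibition: endpoint recorded as highest concentration tested. GI50 = concentration required for 50% inhibition of growth. TGI denotes the concentration required for complete inhibition of growth.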

Experiments:
Test in all cases: NCI-60 cell line screen, 48 h
SR leukemia = test system: SR leukemia
UACC-257 melanoma = test system: UACC-257 melanoma
UACC-62 melanoma = test system: UACC-62 melanoma
MDA-MB-435 = test system: MDA-MB-435
ACHN renal = test system: ACHN renal
SK-OV-3 ovarian = test system: SK-OV-3 ovarian
SF-539 CNS = test system: SF-539 CNS
HOP-92 NSCLC = test system: HOP-92 NSCLC
LOX IMVI melanoma = test system: LOX IMVI melanoma
M14 melanoma = test system: M14 melanoma

SMILES	GI50 (SR leukemia) [µM]	TGI (SR leukemia) [µM]	GI50 (UACC-257 melanoma) [µM]	TGI (UACC-257 melanoma) [µM]	GI50 (UACC-62 melanoma) [µM]	TGI (UACC-62 melanoma) [µM]	GI50 (MDA-MB-435) [µM]	TGI (MDA-MB-435) [µM]	GI50 (ACHN renal) [µM]	TGI (ACHN renal) [µM]	GI50 (SK-OV-3 ovarian) [µM]	TGI (SK-OV-3 ovarian) [µM]	GI50 (SF-539 CNS) [µM]	TGI (SF-539 CNS)	GI50 (HOP-92 NSCLC) [µM]	TGI (HOP-92 NSCLC) [µM]	GI50 (LOX IMVI melanoma) [µM]	TGI (LOX IMVI melanoma) [µM]	GI50 (M14 melanoma) [µM]	TGI (M14 melanoma) [µM]
N#Cc1ccc(O)c(C2=NCC(c3cccc(Oc4ccccc4)c3)O2)c1 (configuration not stated)	0.933	> 100	2.28	7.29	1.03	2.27	1.63	> 100	0.615	14.3	1.58	21.3	1.83	9.27 µM	1.81	37	0.42	12.7		
Oc1c(CN2CCC(N3CCCCC3)CC2)cc(Cc2cc(CN3CCC(N4CCCCC4)CC3)c(O)c3ncccc23)c2cccnc12	0.652	3.74	2.08	4.31	0.609	5.17	1.77	6.41	1.4	11.7	1.21	5.08			3.38	21	0.62	2.89	1.11	2.75
CC1=CC(=Nc2ccc(N(CCCl)CCCl)cc2)C=C(C)C1=O	0.288	> 33.9	1.49	5.12	1.12	6.47	1.67	4.55	0.29	1.61	3.21	23	0.448	8.71 µM	0.392	2.06			0.603	3.98
O=C1C2c3[nH]c4ccccc4c3C3CCCCCCC3C2C(=O)N1c1ccccc1 (configuration not stated)		48.4				> 100				38.4		6.37		30.5 µM				17.2		42.5
CCc1ccc(/C=C\c2cc(OC)c(OC)c(OC)c2)cc1		0.336	0.0802	72.1				0.0066	0.0784	31.8			0.0163	0.0443 µM and 0.0546 µM	0.0222	0.233		0.581	0.0168	19.9
COC(=O)c1c/c(=N\NC(=O)CC(=O)Nc2ccccc2OC)c2ccccc2o1		> 100				> 100				> 100		> 100		> 100 µM				> 100		> 100
O=C1/C(=C/c2ccccc2)CNC/C1=C\c1ccccc1		0.536		10.6		3.69				4.37		6.36		3.46 µM		22.1		2.05		3.56
C[C@]12CC[C@H]3[C@@H](CC=C4C[C@@H](O)CC[C@@]43C)[C@@H]1CC[C@@H]2N(CCO)CCO				> 100		> 100		> 100		> 100		> 100		> 100 µM		> 100		> 100		> 100
CC(C)(C)OC(=O)N1CCc2c(sc3ncnc(N/N=C/c4cccc5ccccc45)c23)C1	2.82	16	5.8	69.6	2.65	10.2	2.47	7.31	3.24	78.5	4	> 100	2.72	8.59 µM	2.78	92.3	3.84	25.5		
